Data on 9 compounds can be found in patent US20250228242A1 (priority 2021, published 2025).

The subject of one assay is Phytophthora infestans. The experiment in a line: whole plant or invertebrate. Format: in vivo. The note with it: in Solanum tuberosum, 120 h, read-out: P. infestans % inhibition.
Assay [1] deals with Albugo candida. The experiment in a line: Albugo candida on A. thaliana, syringe infiltration of compound, visual scoring of disease severity. Format: in vivo. The note with it: in Arabidopsis thaliana, read-out: A. candida Inhibitory effect. The procedure: (§1) A. thaliana seeds were stratified on moist soil (Einheitserde type A240, Stender, Germany) for seven days at 4° C. in darkness, before transfer into growth chambers with short day conditions (10 h light, 14 h darkness, 23/20° C., 60% humidity). After three weeks, seedlings were singularised and grown for three weeks further. After six weeks, A. thaliana plants were used for experiments and after infection they were transferred into SANYO (Panasonic MLR-352, Japan) growth cabinets (10 h light, 14 h darkness, 22/16° C.). Potato plants were grown from tubers by covering them with soil (Einheitserde type A240, Stender, Germany). The leaves of adult plants (˜4-6 weeks old) were cut off and kept in a moist environment for infection assays.
(§2) For regular Albugo sp. infections A. thaliana Ws-0 was sprayed with an Albugo sp. conidiospores solution. These spore solutions were prepared by harvesting sporulating leaf material at 14 days post infection (dpi) and adding water for rehydration of the spores. Spore solutions were hold on ice for ˜1 h, before filtering through miracloth (Merck Millipore, Germany) to remove dirt. Spores were counted and the solutions diluted to 22.2×10^4 conidiospores/ml. Albugo sp. spore solutions were sprayed uniformly on A. thaliana leaves (4.5 ml per six plants) using an airbrush gun. During spraying, plants were placed in a plastic bag and afterwards transferred into a cold room to incubate at 4° C. in darkness (˜16 h). The next morning, plants were transferred into plant growth cabinets, but left in clear bags to keep humidity high, which supports Albugo sp. infections. ˜24 h later plants were unbagged and further incubated under normal plant growth conditions.
(§3) Afterwards, the plants were kept in the lab for ˜1 h to let the leaves equilibrate again. The infiltrated plants were infected with Albugo sp., following the above-mentioned protocol. At 7 dpi, infiltrated leaves were phenotypically scored and harvested. The samples were frozen in liquid nitrogen and stored at −80° C. until DNA extraction for growth quantification via qPCR. For experiment 4, A. candida spore solutions were prepared as before and mixed with 10 mM stock solution of the test compound (100 μM end conc.). The mixture of spore solution and test compound was sprayed and incubated as for experiment 2 and 3.
(§4) • Fungicidal activity against other oomycetes was tested using isolates of the obligate biotrophic pathogen genus Albugo on Arabidopsis thaliana. The test compounds, 100 μM in 1% DMSO, were syringe infiltrated into adult A. thaliana and subsequently sprayed with aqueous spore solutions of Albugo laibachii or A. candida. In primary screenings, disease severity was visually screened and scored at nine days post infection (dpi) (Table 2+3).

In assay [2] the test system is Pseudomonas syringae pv. tomato (Pto) DC3000. Briefly: Bacterial liquid culture growth curves (OD600), Pto DC3000. The note with it: 18.5 h, read-out: Absolute growth rate relative to mock control, Pto DC3000.
Another assay has as its system Rhodococcus sp. Briefly: Bacterial liquid culture growth curves (OD600), Rhodococcus sp. The note with it: 18.5 h, read-out: Absolute growth rate relative to mock control, Rhodococcus sp.
The test system of assay [3] is Albugo candida. Briefly: Albugo candida growth on A. thaliana after syringe infiltration, quantified via qPCR. The note with it: for inhibition at 100 µM: Albugo candida, in Arabidopsis thaliana, qPCR at 7 dpi, A. thaliana; for inhibition of A. candida growth (in words): Table 4, qPCR at 7 dpi. It is filed as in vivo.
Assay [4] relates to Albugo laibachii. The experiment in a line: Albugo laibachii growth on A. thaliana after syringe infiltration, quantified via qPCR. The note with it: for inhibition at 100 µM: Albugo laibachii, in Arabidopsis thaliana, qPCR at 7 dpi, A. thaliana; for inhibition of A. laibachii growth (in words): Table 4, qPCR at 7 dpi, p 5 0.05. It is filed as in vivo.
Assay [5] relates to Albugo laibachii. Briefly: Albugo laibachii on A. thaliana, syringe infiltration of compound, visual scoring of disease severity. It is filed as in vivo. The note with it: in Arabidopsis thaliana, 100 μM in 1% DMSO syringe infiltrated into adult A. thaliana, visually scored at nine dpi, read-out: A. laibachii Inhibitory effect. The procedure: as §1, §2, §3, §4
The test system of another assay is A. candida. Briefly: A. candida growth on A. thaliana after spray application of spore solution mixed with compound, qPCR. It is filed as in vivo, Albugo candida. The note with it: for inhibition at 100 µM: Candida, in Arabidopsis thaliana, spray application of spore solution mixed with 100 μM compound in 1% DMSO, qPCR at 7 dpi, A. thaliana. In general terms: Real-time PCR tracks product formation cycle by cycle.

The test system of the next assay is P. infestans. Briefly: whole plant or invertebrate. It is filed as in vivo. The note with it: Phytophthora infestans, in Solanum tuberosum, read-out: P. infestans % inhibition.
The next assay has as its system Phakopsora pachyrhizi. The experiment in a line: Soybean rust on soybean (Glycine max) leaves, syringe infiltration of compound, visual scoring. It is filed as in vivo. The note with it: 100 μM in 1% DMSO syringe infiltrated into adult G. max, visually scored at nine dpi, read-out: P. pachyrhizi Inhibitory effect. As to the method: Soybean plants were grown from pregerminated soybeans by putting them 1 cm deep into soil (Einheitserde type A240, Stender, Germany). Plants were grown in growth cabinets (16h light at 400 μM/m^2s and 22-24° C.-8h dark at 21-22° C.). 14 days after soil planting, plants were used for infection and experiments. Following inoculation with rust spores, plants were transferred back to growth cabinet prior to symptom screening.
Infiltration was always done through somata at the lower site of the leaf under light conditions to ensure stomata are open. Afterwards, the plants were kept in the growth cabinet for ˜1 h to let the leaves equilibrate again. The infiltrated plants were inoculated with Soybean rust spores using an airbrush and 0.01% Tween20 to ensure homogenous wetting. Plants were afterwards incubated for 24h in the dark at 24° C. and 100% humidity. At 9 dpi, infiltrated leaves were phenotypically scored.
• Fungicidal activity against Soybean rust was tested using a highly virulent stain of Phakopsora pachyrhizi and commercially available Soybeans.
The test compounds, […] 100 μM in 1% DMSO, were syringe infiltrated into adult G. max plants and subsequently sprayed with aqueous spore solutions and 0.01% Tween. In primary screenings, disease severity was visually screened and scored at nine days post infection (dpi) (Table 8).

Where a name gives a salt, the structure may show the parent alone.

Turning to `Oc1ccc(-c2cc(-c3cc(O)c(O)c(O)c3)n[nH]2)cc1O` [Compound 5, 5-(3,4-Dihydroxyphenyl)-3-(3,4,5-trihydroxyphenyl)-1H-pyrazole], the inhibition at 100 µM in the assay with Phytophthora infestans was 89%; in the assay with Albugo candida [1], > 70%. Further, the activity at 100 µM was determined as 40% in [2] and 64% in the assay with Rhodococcus sp..
`COc1ccc(-c2cc(-c3ccc(OC)c(OC)c3)on2)cc1` [Compound 19, 5-(3,4-Dimethoxyphenyl)-3-(4-methoxyphenyl)isoxazole]: the inhibition at 100 µM in the assay with Phytophthora infestans is 26%; with Albugo candida [1] it was > 70%; in the assay on Albugo candida [3] it was 70%; in the assay with Albugo laibachii [4], 59%. Also, the “inhibition of A. candida growth (in words)” value in the assay with Albugo candida [3] is “strong inhibition”. Also, in the assay on Albugo laibachii [4], the “inhibition of A. laibachii growth (in words)” value is on record as “significantly inhibited”. Moreover, the activity at 100 µM in assay [2] came to 95%; in the assay on Rhodococcus sp. it was 58%.
On to `Oc1ccc(-c2cc(-c3ccc(O)c(O)c3)on2)cc1` [Compound 22, 5-(3,4-Dihydroxyphenyl)-3-(4-hydroxyphenyl)isoxazole], for which the inhibition at 100 µM is 63% with Phytophthora infestans, > 70% in the assay with Albugo laibachii [5], 53% with Albugo candida [3] and 49% in the assay on Albugo laibachii [4]. Besides, the “inhibition of A. candida growth (in words)” value with Albugo candida [3] is “strong inhibition”. The “inhibition of A. laibachii growth (in words)” value in the assay on Albugo laibachii [4] is given as “significantly inhibited”.
On to `Br.Oc1ccc(-c2noc(-c3ccc(O)c(O)c3)n2)cc1O` [Compound 24, 3,5-Bis(3,4-Dihydroxyphenyl)-1,2,4-oxadiazole hydrobromide], for which the inhibition at 100 µM was 80% with Phytophthora infestans; > 70% in the assay on Albugo candida [1]; 80% with Albugo candida [3]; 16% in the assay with Albugo laibachii [4]; 41% in the assay with A. candida. The “inhibition of A. candida growth (in words)” value in the assay with Albugo candida [3] is “strong inhibition”. The activity at 100 µM was found to be 95% in [2] and 19% with Rhodococcus sp..
On to `Oc1ccc(-c2c[nH]c(-c3ccc(O)c(O)c3)n2)cc1O` [Compound 28, 2,4-Bis(3,4-dihydroxyphenyl)-1H-imidazole hydrobromide], for which the inhibition at 100 µM is 30% in the assay with Phytophthora infestans, 30 to 70% in the assay on Albugo laibachii [5], 49% with Albugo candida [3] and 4% with Albugo laibachii [4]. The activity at 100 µM in [2] is 49%; with Rhodococcus sp. it was 71%.
On to `Br.Oc1ccc(-c2cc(-c3ccc(Cl)cc3)[nH]n2)cc1` [Compound 36, 5-(4-Chlorophenyl)-3-(4-hydroxyphenyl)-1H-pyrazole hydrobromide], for which the inhibition at 100 µM in the assay with Phytophthora infestans is 95%; with P. infestans it was 85%; in the assay on Albugo candida [1], > 70%; in the assay with A. candida, 94%. In addition, the “growth inhibition of A. candida (in words)” value in the assay on A. candida (Table 5, spore solution mixed with compound, sprayed) is recorded as “strong growth inhibition”. The figures for the activity at 100 µM (in assay [2]; in the assay with Rhodococcus sp.) were 104% and 9%, respectively.
As for `COc1ccc(-c2cc(-c3ccc(OC)c(OC)c3)on2)cc1OC` [Compound 43, 3,5-Bis(3,4-dimethoxyphenyl)isoxazole], in the assay with Albugo candida [1], the inhibition at 100 µM was > 70%. Besides, the activity at 100 µM in assay [2] amounted to 114%; in the assay with Rhodococcus sp., 75%.
Turning to `CCc1ccc(-c2cc(-c3cccc(NC(=O)[C@@H](N)CO)c3)[nH]n2)cc1` [Compound 129, (2S)-2-Amino-N-{3-[3-(4-ethylphenyl)-1H-pyrazol-5-yl]phenyl}-3-hydroxypropanamide hydrochloride], the inhibition at 100 µM with P. infestans was 97%; with Phakopsora pachyrhizi, > 70%.
For `O=C(c1ccc(-c2cc(-c3ccc(F)cc3)[nH]n2)cc1)N1CCOCC1` [Compound 143, {4-[5-(4-Fluorophenyl)-1H-pyrazol-3-yl]phenyl}(morpholin-4-yl)methanone] the same measures were 94% and 5 to 30%.
